Measurements from patent publication US20230158102A1 (priority 2020, published 2023).
Read-outs that look alike come from different tables or passages of the source.

Columns and labels:
SARS-CoV-2 (COVID-19) = test: Study APLICOV-PC (NCT04382066): efficacy in patients hospitalised for COVID-19; assay type: in vivo, human; details: for Patients discharged from hospital by Day 8, (%): 192 h; for Patients discharged from hospital by Day 31, (%) / Patients requiring oxygen therapy at Day 31, (%): 744 h
[1] = Storage stability of plitidepsin vials and reconstituted solution; assay type: physicochemical
Protocol: Plitidepsin will be labelled with the study protocol code, the batch number, the content, the expiry date, the storage conditions, the name of the investigator and the sponsor. The study drug will be labelled in accordance with Annex 13 of the European Good Manufacturing Practices. Plitidepsin should be stored between 2° C. and 8° C. and the vials should be kept in the outer carton to protect them from light. The drug in these conditions is stable for 60 months.
After reconstitution of the 2 mg plitidepsin vial with 4 ml of the solution for reconstitution of macrogolglycerol ricinoleate/ethanol/water for injection, the reconstituted solution should be diluted and used immediately after preparation. If not used immediately, storage times and conditions until use are the responsibility of the user. […] If storage is required before administration, solutions should be stored refrigerated and protected from light and should be used within 24 hours after reconstitution.

Vero E6 cells = details: Vero E6, absence of virus, 3 days
NFκB = details: tumour cells, early in vitro studies; cited from earlier work
eEF1A = target: T1, eEF1A (Oryctolagus cuniculus, UniProt Q71V39); details: 14C-plitidepsin, eEF1A purified from rabbit muscle; cited from earlier work
T1 construct: eEF1A purified from rabbit muscle; from tissue; host or cells: rabbit muscle

[2] = cancer patients, single-agent plitidepsin; cited from earlier work
in vitro = details: African green monkey

T1 sequence (Q71V39 whole entry): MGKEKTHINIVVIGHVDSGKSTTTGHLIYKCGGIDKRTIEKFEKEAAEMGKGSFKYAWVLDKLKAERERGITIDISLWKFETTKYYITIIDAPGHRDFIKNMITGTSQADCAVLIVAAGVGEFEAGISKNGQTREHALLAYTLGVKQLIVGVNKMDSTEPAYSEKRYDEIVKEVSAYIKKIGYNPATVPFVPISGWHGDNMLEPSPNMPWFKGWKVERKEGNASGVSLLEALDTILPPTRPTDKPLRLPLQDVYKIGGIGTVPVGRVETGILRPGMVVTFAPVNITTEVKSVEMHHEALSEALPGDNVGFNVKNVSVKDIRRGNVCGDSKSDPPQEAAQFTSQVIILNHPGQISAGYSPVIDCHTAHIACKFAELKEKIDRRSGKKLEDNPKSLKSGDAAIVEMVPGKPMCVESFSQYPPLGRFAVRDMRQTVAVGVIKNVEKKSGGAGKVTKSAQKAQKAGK

With `CC[C@H](C)[C@H]1NC(=O)[C@@H](NC(=O)[C@@H](CC(C)C)N(C)C(=O)[C@@H]2CCCN2C(=O)C(C)=O)[C@@H](C)OC(=O)[C@H](Cc2ccc(OC)cc2)N(C)C(=O)[C@@H]2CCCN2C(=O)[C@H](CC(C)C)NC(=O)[C@@H](C)C(=O)[C@H](C(C)C)OC(=O)C[C@@H]1O` [PLD, (−)-(3S,6R,7S,10R,11S,15S,17S,20S,25aS)-11-hydroxy-3-(4-methoxybenzyl)-2,6,17-trimethyl-15-(1-methylethyl)-7-[[(2R)-4-methyl-2-[methyl[[(2S)-1-(2-oxopropanoyl)pyrrolidin-2-yl]carbonyl]amino]pentanoyl]amino]-10-[(1S)-1-methylpropyl]-20-(2-methylpropyl)tetradecahydro-15H-pyrrolo[2,1-f]-[1,15,4,7,10,20]dioxatetrazacyclotricosine-1,4,8,13,16,18,21(17H)-heptone] the “Patients requiring ICU admission from Day 1 to Day 31, (%)” value (SARS-CoV-2 (COVID-19); 2.5 mg) was “(20.0) %”, the “Patients requiring invasive mechanical ventilation and/or ICU admission from Day 1 to Day 7, (%)” value (SARS-CoV-2 (COVID-19); 2.5 mg) was “(13.3) %” and the “Patients requiring invasive mechanical ventilation and/or ICU admission from Day 1 to Day 15, (%)” value (SARS-CoV-2 (COVID-19); 2.5 mg) was “(20.0) %”. For the same molecule, the “Patients requiring invasive mechanical ventilation and/or ICU admission from Day 1 to Day 31, (%)” value (SARS-CoV-2 (COVID-19); 2.5 mg) was “(20.0) %”, the “Patients requiring noninvasive mechanical ventilation from Day 1 to Day 7, (%)” value (SARS-CoV-2 (COVID-19); 2.5 mg) was “(6.7) %” and the “Patients requiring noninvasive mechanical ventilation from Day 1 to Day 15, (%)” value (SARS-CoV-2 (COVID-19); 2.5 mg) was “(13.3) %”. The “Patients requiring noninvasive mechanical ventilation from Day 1 to Day 31, (%)” value (SARS-CoV-2 (COVID-19); 2.5 mg) was “(13.3) %”, the “Patients requiring oxygen therapy at Day 7, (%)” value (SARS-CoV-2 (COVID-19); 2.5 mg, 168 h) was “(73.3) %” and the “Patients discharged from hospital by Day 8, (%)” value (SARS-CoV-2 (COVID-19); 2.5 mg) was “(66.7) %”. For the same molecule, the “Patients discharged from hospital by Day 15, (%)” value (SARS-CoV-2 (COVID-19); 2.5 mg, 360 h) was “(73.3) %”, the “Patients requiring oxygen therapy at Day 15, (%)” value (SARS-CoV-2 (COVID-19); 2.5 mg, 360 h) was “(26.7) %” and the “Patients discharged from hospital by Day 31, (%)” value (SARS-CoV-2 (COVID-19); 2.5 mg) was “(86.7) %”. The “Patients requiring oxygen therapy at Day 31, (%)” value (SARS-CoV-2 (COVID-19); 2.5 mg) was “(6.7) %”, the “Mean reduction in viral load by Day 7” value (SARS-CoV-2 (COVID-19); 168 h) was −3.1 log10 copies/mL and the “Patients requiring oxygen therapy at Day 7, (%)” value (SARS-CoV-2 (COVID-19); 168 h) was “(70.5) %”. The “Patients discharged from hospital by Day 8, (%)” value (SARS-CoV-2 (COVID-19)) was “(56.8) %”, the “Patients discharged from hospital by Day 15, (%)” value (SARS-CoV-2 (COVID-19); 360 h) was “(81.8) %” and the “Patients requiring oxygen therapy at Day 15, (%)” value (SARS-CoV-2 (COVID-19); 360 h) was “(20.5) %”. For the same molecule, the “Patients with mild disease discharged by Day 15” value (SARS-CoV-2 (COVID-19); 360 h) was 100%, the “Patients with moderate disease discharged by Day 15” value (SARS-CoV-2 (COVID-19); 360 h) was 82% and the “Patients with severe disease discharged by Day 15” value (SARS-CoV-2 (COVID-19); 360 h) was 57%. The “Reduction in baseline viral load by Day 15” value (SARS-CoV-2 (COVID-19); 360 h) was −3.0 log, the “Patients discharged from hospital by Day 31, (%)” value (SARS-CoV-2 (COVID-19)) was “(90.9) %” and the “Patients requiring oxygen therapy at Day 31, (%)” value (SARS-CoV-2 (COVID-19)) was “(6.8) %”. For the same molecule, the “Mean reduction in viral load by Day 15” value (SARS-CoV-2 (COVID-19); across dose cohorts) was 4.5 log10 copies/mL, the “Stability of the drug on storage” value ([1]; between 2° C. and 8° C., vials in the outer carton protected from light) was 60 months and the “Physical, chemical and microbiological stability of the reconstituted concentrated solution” value ([1]; original vial under indoor light at room temperature) was 6 hours. The “Physical, chemical and microbiological stability of the reconstituted concentrated solution” value ([1]; refrigerated conditions (5° C.±3° C.)) was 24 hours, the Tolerability of treatment (1.5, 2.0 and 2.5 mg daily for 3 days, 45 patients) was “well tolerated” and the “Prevalence of Grade ≥3 AEs” value (1.5-mg cohort) was 33.3%. For the same molecule, the “Prevalence of Grade ≥3 AEs” value (2.0-mg cohort) was 20.0%, the “Prevalence of Grade ≥3 AEs” value (2.5-mg cohort) was 40.0 and the “Events of special interest: Grade ≥3 ALT elevation” value (all cohorts) was 1 case. For the same molecule, the “Patients unable to complete plitidepsin treatment” value (all cohorts) was 1 patient, the “Patients who experienced Grade ≥3 AEs” value (all cohorts (14/45)) was 31% and the “Patients who experienced a treatment-related Grade ≥3 AE” value (all cohorts, 45 patients) was 2 patients. The “Patients who experienced SAEs” value (dosed at 1.5 mg) was 6 patients, the “Patients who experienced SAEs” value (dosed at 2.0 mg) was 1 patients and the “Patients who experienced SAEs” value (dosed at 2.5 mg) was 3 patients. The “Patients with a 2 grade increase in CPK” value (human, in vivo) was 1 patient, the “Patients who experienced SAEs” value (total) was 10 patients and the “Cytotoxic effects of the drug at concentrations inhibiting viral-induced cytopathic effects” value (Vero E6 cells) was “no cytotoxic effects of the drug were observed”. For the same molecule, the “Effect on NFκB” value (NFκB) was “induces down-regulation of NFκB”, the Binding affinity (eEF1A) was “high affinity” and the Rate of dissociation (eEF1A) was “low rate of dissociation”. The AE asthenia/fatigue [2] was 83%, the AE constipation [2] was 29% and the AE diarrhoea [2] was 31%. For the same molecule, the AE nausea [2] was 64%, the AE pyrexia [2] was 28% and the AE vomiting [2] was 38%. For the same molecule, the CC50 (in vitro) was 178 to 431 nM.
